According to patent US20260042764A1, “COMPOSITIONS AND METHODS FOR INHIBITION OF KRAS” (TheRas, Inc., priority 2022, published 2026):

How the values were obtained:
[1] = system: GP2d cells (KRAS G12D); test: Cell-based pERK HTRF assay in GP2d cell (Biological Example 2); details: GP2d (KRAS G12D) cells
Procedure, shortened: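 Treatment with test compounds lasted one hour in DMEM containing 10% FBS, with DMSO held at 0.25%. Dilution series: 9 points, half-log spacing, highest 1 μM or 100 nM. Lysates were incubated 4–24 h at room temperature with antibody mix, then HTRF was read at 320 nm excitation.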

[2] = molecular target: T1, Avi-KRAS G12D (2-169) GTP/RAF1 RBD-3xFLAG (51-131) (Homo sapiens, UniProt P01116, G12D); test: Raf1-KRAS G12D-GTP disruption HTRF assay (Biological Example 3); type: binding; details: KRAS G12D, GTP-loaded
T1 construct: Avi-KRAS G12D (2-169)
Method: (§1) Biological Example 3: Disrupting RAS-Effector Binding HTRF Assay
(§2) A protein:protein interaction (PPI) Homogeneous Time Resolved Fluorescence (HTRF) assay was used to determine the effectiveness of compounds in disrupting KRAS protein and effector (RAF1) binding.
(§3) The HTRF assay used the following reagents and proteins: (i) 50 nM Avi-KRAS G12D (2-169) GTP/RAF1 RBD-3xFLAG (51-131): (ii) 50 nM Avi-KRAS G12C (2-169) GTP/RAF1 RBD-3xFLAG (51-131): (iii) 50 nM Avi-KRAS G12V (2-169) GTP/RAF1 RBD-3xFLAG (51-131); (iv) 50 nM Avi-KRAS WT (2-169) GTP/RAF1 RBD-3xFLAG (51-131); and (v) 75 nM 3xFLAG-RAF1 RBD (51-131)-Avi. The assay buffer included: 50 mM Tris pH 7.5 (Invitrogen, 15567-027), 100 mM NaCl (Sigma, S5150-IL), 5 mM MgCl2 (Sigma, 63069), 0.1% BSA (Sigma, A7030), 0.01% Tween 20 (Sigma, P7949), 10% DMSO (Cell Signaling, 12611). The bead buffer included: 50 mM Tris pH 7.5 (Invitrogen, 15567-027), 0.01% Tween 20 (Sigma, P7949). An assay volume of 20 μL was used in a 384 well plate-low volume format. Compound titration: 30-0.005 μM, 3x dilution series.
(§4) The HTRF assay employed the following protocol:
(§5) Compounds were dispensed in assay plate (384-well, Grenier Bio-One #784075) using Echo (model 555) with dose response settings: 200 nL final volume, titration from 30 μM as a 10-point dilution series. Proteins and HTRF reagents were mixed and dispensed onto plates, 20 μL per well, and then incubated for 1 h at room temperature, with 700 rpm shaking.
(§6) Plates were analyzed on an Envision plate reader using the following setting: Excitation 320 nm, Bandwidth 75 nm; Emission 615 nm, Bandwidth 85 nm; Gain 100%; Flashes 100; Lag 60 μs. Data was reported as percentage of activity, with DMSO as 100%. Data was plotted and analyzed using Prism 8.
(§7) The biochemical Raf1-KRAS G12D/G12V/G12C/WT-GTP disruption assay IC50 of selected compounds described herein are shown in Table 12.

[3] = molecular target: T2, Avi-KRAS G12C (2-169) GTP/RAF1 RBD-3xFLAG (51-131) (Homo sapiens, UniProt P01116, G12C); test: Raf1-KRAS G12C-GTP disruption HTRF assay (Biological Example 3); type: binding; details: KRAS G12C, GTP-loaded
T2 construct: Avi-KRAS G12C (2-169)
Method: as §1, §2, §3, §4, §5, §6, §7

[4] = molecular target: T3, Avi-KRAS G12V (2-169) GTP/RAF1 RBD-3xFLAG (51-131) (Homo sapiens, UniProt P01116, G12V); test: Raf1-KRAS G12V-GTP disruption HTRF assay (Biological Example 3); type: binding; details: KRAS G12V, GTP-loaded
T3 construct: Avi-KRAS G12V (2-169)
Method: as §1, §2, §3, §4, §5, §6, §7

[5] = molecular target: T4, Avi-KRAS WT (2-169) GTP/RAF1 RBD-3xFLAG (51-131) (Homo sapiens, UniProt P01116); test: Raf1-KRAS WT-GTP disruption HTRF assay (Biological Example 3); type: binding; details: KRAS WT, GTP-loaded
T4 construct: Avi-KRAS WT (2-169)
Method: as §1, §2, §3, §4, §5, §6, §7

[6] = system: SW620 cells (KRAS G12V); test: Cell-based pERK HTRF assay in SW620 cell (Biological Example 4)
Procedure, shortened: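 SW620 cells were treated for 4 h with compound in a 9-point half-log series from 1 μM top (0.25% DMSO), then lysed. Phospho-ERK was detected by HTRF with d2 and Eu cryptate antibodies after 4–24 h at room temperature, read at 615 nm emission.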

[7] = Homo sapiens, SW-620, SW620 (KRAS G12V) cells

T2 sequence (P01116 2-169 isoform P01116-2 G12C): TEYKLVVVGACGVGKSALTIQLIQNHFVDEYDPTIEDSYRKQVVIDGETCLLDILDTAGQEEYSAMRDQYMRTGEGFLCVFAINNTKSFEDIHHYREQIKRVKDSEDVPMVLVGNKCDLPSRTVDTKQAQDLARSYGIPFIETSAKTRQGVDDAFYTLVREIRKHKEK
T1 sequence (P01116 2-169 isoform P01116-2 G12D): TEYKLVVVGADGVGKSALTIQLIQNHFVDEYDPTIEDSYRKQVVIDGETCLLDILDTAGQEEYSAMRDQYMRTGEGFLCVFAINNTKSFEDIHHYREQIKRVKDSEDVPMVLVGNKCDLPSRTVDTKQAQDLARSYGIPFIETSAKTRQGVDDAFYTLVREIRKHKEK
T3 sequence (P01116 2-169 isoform P01116-2 G12V): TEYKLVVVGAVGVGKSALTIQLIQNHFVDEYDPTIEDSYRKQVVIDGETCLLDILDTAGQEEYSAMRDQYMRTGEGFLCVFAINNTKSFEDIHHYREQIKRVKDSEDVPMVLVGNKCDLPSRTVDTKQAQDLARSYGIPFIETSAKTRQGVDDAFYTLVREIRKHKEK
T4 sequence (P01116 2-169 isoform P01116-2): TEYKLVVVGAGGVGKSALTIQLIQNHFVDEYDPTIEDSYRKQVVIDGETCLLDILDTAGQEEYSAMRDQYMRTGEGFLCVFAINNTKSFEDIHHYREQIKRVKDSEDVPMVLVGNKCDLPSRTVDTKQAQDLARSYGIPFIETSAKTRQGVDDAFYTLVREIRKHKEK

SMILES	IC50 ([1]; GP2d)	IC50 [2]	IC50 [3]	IC50 [4]	IC50 [5]	IC50 [6, 7]	IC50 [1]	IC50 ([6]; SW620 (KRAS G12V) cells)
N#Cc1c(N)sc2c(F)ccc(-c3c(C(F)(F)F)cc4c(N5CCc6ccncc6C5)nc(OC[C@@]56CCCN5C[C@H](F)C6)nc4c3F)c12 [Compound 942]	< 0.1 µM	> 10 µM	> 10 µM	> 10 µM	> 10 µM	0.1 to 1 µM		
CCN(c1nc(OC[C@@]23CCCN2C[C@H](F)C3)nc2c(F)c(-c3ccc(F)c4sc(N)c(C#N)c34)c(C(F)(F)F)cc12)[C@H]1CCN(C(=O)c2ccon2)[C@@H]1C [Compound 838]	< 0.1 µM	0.1 to 1 µM	0.1 to 1 µM	0.1 to 1 µM	0.1 to 1 µM	< 0.1 µM		
CCN(c1nc(OC[C@@]23CCCN2C[C@H](F)C3)nc2c(F)c(-c3ccc(F)c4sc(N)c(C#N)c34)c(C(F)(F)F)cc12)[C@@H]1CCN2C(=O)OC[C@H]12 (atropisomer, axis not shown) [Compound 941]	< 0.1 µM	1 to 10 µM	1 to 10 µM	> 10 µM	1 to 10 µM	< 0.1 µM		
CCN(c1nc(OC[C@@]23CCCN2C[C@H](F)C3)nc2c(F)c(-c3ccc(F)c4sc(N)c(C#N)c34)c(C(F)(F)F)cc12)[C@@H]1CC[C@H](C(=O)N(C)C)C1 [Compound 959]	< 0.1 µM	1 to 10 µM	1 to 10 µM	1 to 10 µM	1 to 10 µM	< 0.1 µM		
CCN(c1nc(OC[C@@]23CCCN2C[C@H](F)C3)nc2c(F)c(-c3ccc(F)c4sc(N)c(C#N)c34)c(C(F)(F)F)cc12)[C@H]1C[C@@H]2COCC(=O)N2C1 (atropisomer, axis not shown) [Compound 878]	< 0.1 µM	0.1 to 1 µM	0.1 to 1 µM	0.1 to 1 µM	0.1 to 1 µM	< 0.1 µM		
CCN(c1nc(OC[C@@]23CCCN2C[C@H](F)C3)nc2c(F)c(-c3ccc(F)c4sc(N)c(C#N)c34)c(C(F)(F)F)cc12)C1C[C@H](C)N(C(=O)C2CC2)C1 (stereo partly drawn) [Compound 909]		0.1 to 1 µM	0.1 to 1 µM	0.1 to 1 µM	0.1 to 1 µM		< 0.1 µM	< 0.1 µM
[2H][C@]1(N(CC)c2nc(OC[C@@]34CCCN3C[C@H](F)C4)nc3c(F)c(-c4ccc(F)c5sc(N)c(C#N)c45)c(C(F)(F)F)cc23)CCN(C(=O)N(C)C)C1 (atropisomer, axis not shown) [Compound 859]	< 0.1 µM	0.1 to 1 µM	0.1 to 1 µM	0.1 to 1 µM	0.1 to 1 µM	< 0.1 µM		
CCN(c1nc(OC[C@@]23CCCN2C[C@H](F)C3)nc2c(F)c(-c3ccc(F)c4sc(N)c(C#N)c34)c(C(F)(F)F)cc12)[C@H]1CCN(C(=O)c2cnc(Cl)s2)C1 (atropisomer, axis not shown) [Compound 905]	< 0.1 µM	0.1 to 1 µM	0.1 to 1 µM	0.1 to 1 µM	1 to 10 µM	< 0.1 µM		
CCN(c1nc(OC[C@@]23CCCN2C[C@H](F)C3)nc2c(F)c(-c3ccc(F)c4sc(N)c(C#N)c34)c(C(F)(F)F)cc12)[C@H]1C[C@@H](C(=O)N(C)C)C1 (atropisomer, axis not shown) [Compound 957]		0.1 to 1 µM	1 to 10 µM	1 to 10 µM	1 to 10 µM		< 0.1 µM	< 0.1 µM
CCN(c1nc(OC[C@@]23CCCN2C[C@H](F)C3)nc2c(F)c(-c3ccc(F)c4sc(N)c(C#N)c34)c(C(F)(F)F)cc12)[C@H]1C[C@H]2CCCC(=O)N2C1 (atropisomer, axis not shown; (aR)) [Compound 662, 2-amino-4-((S)-4-(ethyl((2S,8aR)-5-oxooctahydroindolizin-2-yl)amino)-8-fluoro-2-(((2R,7aS)-2-fluorotetrahydro-1H-pyrrolizin-7a(5H)-yl)methoxy)-6-(trifluoromethyl)quinazolin-7-yl)-7-fluorobenzo[b]thiophene-3-carbonitrile]	< 0.1 µM	≤ 0.1 µM	≤ 0.1 µM	≤ 0.1 µM	0.1 to 1 µM	< 0.1 µM		
CCN(c1nc(OC[C@@]23CCCN2C[C@H](F)C3)nc2c(F)c(-c3ccc(F)c4sc(N)c(C#N)c34)c(C(F)(F)F)cc12)[C@H]1CCN(C(=O)c2nccs2)C1 (atropisomer, axis not shown) [Compound 927]	< 0.1 µM	0.1 to 1 µM	0.1 to 1 µM	0.1 to 1 µM	0.1 to 1 µM	< 0.1 µM		
CCN(c1nc(OC[C@@]23CCCN2C[C@H](F)C3)nc2c(F)c(-c3ccc(F)c4sc(N)c(C#N)c34)c(C(F)(F)F)cc12)[C@H]1C[C@H]2[C@@H](C)N(C)C(=O)N2C1 (atropisomer, axis not shown) [Compound 910]	< 0.1 µM	0.1 to 1 µM	0.1 to 1 µM	0.1 to 1 µM	0.1 to 1 µM	< 0.1 µM		
[2H][C@]1(N(CC)c2nc(OC[C@@]34CCCN3C[C@H](F)C4)nc3c(F)c(-c4ccc(F)c5sc(N)c(C#N)c45)c(C(F)(F)F)cc23)CCN(C(=O)C(C)C)C1 (atropisomer, axis not shown) [Compound 860]	< 0.1 µM	0.1 to 1 µM	0.1 to 1 µM	0.1 to 1 µM	0.1 to 1 µM	< 0.1 µM		
CCN(c1nc(OC[C@@]23CCCN2C[C@H](F)C3)nc2c(F)c(-c3ccc(F)c4sc(N)c(C#N)c34)c(C(F)(F)F)cc12)[C@H]1CCN(C(=O)C2CC(OC)C2)C1 (stereo partly drawn) [Compound 844]	< 0.1 µM	0.1 to 1 µM	0.1 to 1 µM	0.1 to 1 µM	0.1 to 1 µM	< 0.1 µM		
CCN(c1nc(OC[C@@]23CCCN2C[C@H](F)C3)nc2c(F)c(-c3ccc(F)c4sc(N)c(C#N)c34)c(C(F)(F)F)cc12)[C@H]1CCN(C(=O)C2CC2)[C@@H]1COC (atropisomer, axis not shown) [Compound 925]	< 0.1 µM	0.1 to 1 µM	0.1 to 1 µM	0.1 to 1 µM	0.1 to 1 µM	< 0.1 µM		
CCN(c1nc(OC[C@@]23CCCN2C[C@H](F)C3)nc2c(F)c(-c3ccc(F)c4sc(N)c(C#N)c34)c(C(F)(F)F)cc12)[C@H]1CCN(C(=O)O[C@@H]2CCCOC2)C1 (atropisomer, axis not shown) [Compound 796]	< 0.1 µM	0.1 to 1 µM	0.1 to 1 µM	0.1 to 1 µM	0.1 to 1 µM	< 0.1 µM		
CCN(c1nc(OC[C@@]23CCCN2C[C@H](F)C3)nc2c(F)c(-c3ccc(F)c4sc(N)c(C#N)c34)c(C(F)(F)F)cc12)[C@H]1CC[C@@H](C(=O)N(C)C)C1 (atropisomer, axis not shown) [Compound 661]	< 0.1 µM	0.1 to 1 µM	1 to 10 µM	1 to 10 µM	0.1 to 1 µM	< 0.1 µM		
